This is an account of results in US10293014B2, “Immune stimulating composition comprising an extract of Aronia sp. in combination with selenium and/or zinc” (Ursapharm Arzneimittel GmbH, priority 2009, dated 2019).

For the assay, the system named is macrophages of the mouse leukaemic monocyte macrophage cell line RAW 264.7. Kind of assay: Chemiluminescence assay of macrophage activity (lucigenine, zymosan). Type of assay: cell-based. The settings on record: selenium alone, RAW 264.7, FIG. 3. On the procedure: Cells: Cell line (RAW 264.7, murine macrophages) was purchased from the America Type Culture Collection and cultivated as recommended.
Chemiluminescence Assay: Lucigenine (Sigma Chemicals Co.) was dissolved in Hank's Balanced Salt Solution (HBSS; Gibco Co.) at a concentration of 2×10^−3 M. This stock solution was further diluted in HBSS prior to use. 1 ml cells (5×10^6 cells/ml) were incubated with 0.1 ml solution of Aronia extract and Aronia extract together with sodium selenite (dosis kinetics for each component and the combinations as documented in the figures). All these constituents were kept in an incubator (37° C., 5% CO2) for 30 min, then centrifuged at 1200 U/min for 5 min and resuspended in minimal essential medium (MEM, Gibco Co.).
The reaction mixture consisted of a suspension (0.25 ml) at a concentration of 5×10^6 PMNL (polymorphonuclear leucocytes)/ml respectively monocytes/macrophages, 50 μl zymosan, and 0.45 ml medium containing 2×10^−6 M lucigenine. The reaction mixture was kept at 37° C. before chemoluminescence measurements were performed with a Luminometer (Luminoskan 1251, Labsystems) according to manufacturer's instructions (User's Manual 1995).

Consider `O=[Se]([O-])[O-].[Na+].[Na+]` [selenium, sodium selenite], for which the “concentrations that decrease macrophage activity” value was more than 8 µg/mL.
